These results are taken from patent US20150344540A1, “NOVEL GLP-1 RECEPTOR AGONISTS WITH CHOLESTEROL EFFLUX ACTIVITY” (NOVO NORDISK A/S, priority 2012, published 2015).

What is called EC50 is the concentration giving half of the maximal effect.

Where two headings read alike, the source gives them in different places. Where a SMILES comes first, the peptide text is derived from it. [ ]: non-standard residue; d: D form. Aib = CC(C)(N)C(=O)O

For experiment [1], the system named is Mouse monocyte/macrophage cell line, RAW 264.7. The experiment in a line: Cholesterol efflux assay (3H-cholesterol, macrophage cell line). Format: cell-based. The note with it: RAW 264.7, 4 hrs incubation, 0.1% human serum albumin, ABCA1-mediated efflux.
In experiment [2] the target is human GLP-1 receptor (Homo sapiens, UniProt P43220). The experiment in a line: Functional GLP-1 receptor assay, in vitro potency (CRE luciferase; whole cells). The experiment is classed as cell-based. The note with it: BHK cells expressing human GLP-1 receptor.
The mark [3] stands for this setting: GLP1R CRE luc 1% HSA EC50 Mean Value, 1% HSA.
Where [4] appears, read: 0% HSA, read-out: GLP1R CRE luc 0% HSA EC50 Mean Value.

Sequence of human GLP-1 receptor (P43220 24-463): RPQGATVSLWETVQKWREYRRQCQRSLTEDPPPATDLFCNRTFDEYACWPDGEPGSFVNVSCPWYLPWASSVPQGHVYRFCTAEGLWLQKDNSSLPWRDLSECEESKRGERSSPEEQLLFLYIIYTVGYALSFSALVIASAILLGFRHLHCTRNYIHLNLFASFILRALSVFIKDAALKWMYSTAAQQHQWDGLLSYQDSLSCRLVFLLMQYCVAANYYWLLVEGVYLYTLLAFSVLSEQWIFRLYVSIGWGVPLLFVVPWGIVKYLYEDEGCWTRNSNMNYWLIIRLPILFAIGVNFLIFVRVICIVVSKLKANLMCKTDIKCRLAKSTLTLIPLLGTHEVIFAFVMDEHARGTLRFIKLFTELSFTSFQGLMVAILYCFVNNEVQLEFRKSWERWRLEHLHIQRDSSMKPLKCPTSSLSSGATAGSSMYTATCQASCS

Turning to `CC[C@H](C)[C@H](NC(=O)[C@H](Cc1ccccc1)NC(=O)[C@H](CCC(=O)O)NC(=O)[C@H](CCCCN)NC(=O)[C@@H](NC(=O)[C@H](C)NC(=O)[C@H](CCC(=O)O)NC(=O)CNC(=O)[C@H](CCC(=O)O)NC(=O)[C@H](CC(C)C)NC(=O)[C@H](Cc1ccc(O)cc1)NC(=O)[C@H](CO)NC(=O)[C@H](CO)NC(=O)[C@@H](NC(=O)[C@H](CC(=O)O)NC(=O)[C@H](CO)NC(=O)[C@@H](NC(=O)[C@H](Cc1ccccc1)NC(=O)[C@@H](NC(=O)CNC(=O)[C@H](CCC(=O)O)NC(=O)C(C)(C)NC(=O)[C@@H](N)Cc1c[nH]cn1)[C@@H](C)O)[C@@H](C)O)C(C)C)C(C)C)C(=O)N[C@@H](CCC(N)=O)C(=O)N[C@@H](Cc1c[nH]c2ccccc12)C(=O)N[C@@H](CC(C)C)C(=O)N[C@H](C(=O)N[C@@H](CCC(=O)O)C(=O)N[C@@H](CCCCN)C(=O)NC(C)(C)C(=O)N[C@@H](CCCCN)C(=O)N[C@@H](CCC(=O)O)C(=O)N[C@@H](Cc1ccccc1)C(=O)N[C@@H](CC(C)C)C(N)=O)C(C)C` [Compound 83, [Aib8,Glu23,Val25,Gln30,Glu34,Lys35,Aib36,Lys37]-GLP-1-(7-37)-peptidyl-Glu-Phe-Leu amide] (H-H[Aib]EGTFTSDVSSYLEGEAVKEFIQWLVEK[Aib]KEFL-NH2), in experiment [1], the “4 h Cholesterol Efflux Emax” value was 97%. The same compound had an EC50 in experiment [2] (setting [3]) of 0.042 nM.

Turning to `CC[C@H](C)[C@H](NC(=O)[C@H](Cc1ccccc1)NC(=O)[C@H](CCC(=O)O)NC(=O)[C@H](CCCNC(=N)N)NC(=O)[C@@H](NC(=O)[C@H](C)NC(=O)[C@H](CCC(=O)O)NC(=O)[C@H](CCC(=O)O)NC(=O)[C@H](CCC(=O)O)NC(=O)[C@H](CCSC)NC(=O)[C@H](CCC(N)=O)NC(=O)[C@H](CCCCN)NC(=O)[C@H](CO)NC(=O)[C@H](CC(C)C)NC(=O)[C@H](CC(=O)O)NC(=O)[C@H](CO)NC(=O)[C@@H](NC(=O)[C@H](Cc1ccccc1)NC(=O)[C@@H](NC(=O)CNC(=O)[C@H](CCC(=O)O)NC(=O)C(C)(C)NC(=O)[C@@H](N)Cc1c[nH]cn1)[C@@H](C)O)[C@@H](C)O)C(C)C)C(=O)N[C@@H](CCC(=O)O)C(=O)N[C@@H](Cc1c[nH]c2ccccc12)C(=O)N[C@@H](CC(C)C)C(=O)N[C@@H](CCCCN)C(=O)N[C@@H](CC(N)=O)C(=O)N[C@@H](CCCCN)C(=O)NC(C)(C)C(=O)N[C@@H](CC(C)C)C(=O)N[C@@H](CCC(=O)O)C(=O)N[C@@H](CO)C(=O)N[C@@H](CC(C)C)C(=O)N[C@@H](CCC(=O)O)C(=O)N[C@@H](CC(C)C)C(=O)N[C@@H](CC(C)C)C(N)=O` [Compound 37, [Aib2,Glu21,Lys29,Aib30,Leu31,Glu32,Leu34,Glu35,Leu36,Leu371-Exendin-4-(1-37)-peptide amide] (H-H[Aib]EGTFTSDLSKQMEEEAVREFIEWLKNK[Aib]LESLELL-NH2; N-terminus assumed), the “4 h Cholesterol Efflux Emax” value in experiment [1] is given as 102%. For the same compound, the EC50 worked out at 0.023 nM in experiment [2] (setting [4]) and 0.011 nM in experiment [2] (setting [3]).

For `CC[C@H](C)[C@H](NC(=O)[C@H](Cc1ccccc1)NC(=O)[C@H](CCC(=O)O)NC(=O)[C@H](CCCNC(=N)N)NC(=O)[C@@H](NC(=O)[C@H](C)NC(=O)[C@H](CCC(=O)O)NC(=O)[C@H](CCC(=O)O)NC(=O)[C@H](CCC(=O)O)NC(=O)[C@H](CCSC)NC(=O)[C@H](CCC(N)=O)NC(=O)[C@H](CCCCN)NC(=O)[C@H](CO)NC(=O)[C@H](CC(C)C)NC(=O)[C@H](CC(=O)O)NC(=O)[C@H](CO)NC(=O)[C@@H](NC(=O)[C@H](Cc1ccccc1)NC(=O)[C@@H](NC(=O)CNC(=O)[C@H](CCC(=O)O)NC(=O)C(C)(C)NC(=O)[C@@H](N)Cc1c[nH]cn1)[C@@H](C)O)[C@@H](C)O)C(C)C)C(=O)N[C@@H](CCC(=O)O)C(=O)N[C@@H](Cc1c[nH]c2ccccc12)C(=O)N[C@@H](CC(C)C)C(=O)N[C@@H](CCCCN)C(=O)N[C@@H](CC(N)=O)C(=O)N[C@@H](CCCCN)C(=O)NC(C)(C)C(=O)N[C@@H](CC(C)C)C(=O)N[C@@H](CCC(=O)O)C(=O)N[C@@H](Cc1ccccc1)C(=O)NCC(=O)N[C@@H](CCC(=O)O)C(=O)N[C@@H](CC(C)C)C(=O)N[C@@H](CC(C)C)C(N)=O` [Compound 38, [Aib2,Glu21,Lys29,Aib30,Leu31,Glu32,Phe33,Glu35,Leu36,Leu371-Exendin-4-(1-37)-peptide amide] (H-H[Aib]EGTFTSDLSKQMEEEAVREFIEWLKNK[Aib]LEFGELL-NH2; N-terminus assumed), the “4 h Cholesterol Efflux Emax” value in experiment [1] came to 82%. The compound also returned an EC50 in experiment [2] (setting [3]) of 0.012 nM.

For `CC[C@H](C)[C@H](NC(=O)[C@H](Cc1ccccc1)NC(=O)[C@H](CCC(=O)O)NC(=O)[C@H](CCCCN)NC(=O)[C@@H](NC(=O)[C@H](C)NC(=O)[C@H](CCC(=O)O)NC(=O)CNC(=O)[C@H](CCC(=O)O)NC(=O)[C@H](CC(C)C)NC(=O)[C@H](Cc1ccc(O)cc1)NC(=O)[C@H](CO)NC(=O)[C@H](CO)NC(=O)[C@@H](NC(=O)[C@H](CC(=O)O)NC(=O)[C@H](CO)NC(=O)[C@@H](NC(=O)[C@H](Cc1ccccc1)NC(=O)[C@@H](NC(=O)CNC(=O)[C@H](CCC(=O)O)NC(=O)C(C)(C)NC(=O)[C@@H](N)Cc1c[nH]cn1)[C@@H](C)O)[C@@H](C)O)C(C)C)C(C)C)C(=O)N[C@@H](C)C(=O)N[C@@H](Cc1c[nH]c2ccccc12)C(=O)N[C@@H](CC(C)C)C(=O)N[C@H](C(=O)N[C@@H](CCC(=O)O)C(=O)N[C@@H](CCCCN)C(=O)N[C@H](C(=O)N[C@@H](CCCCN)C(=O)N[C@@H](CCC(=O)O)C(=O)N[C@@H](Cc1ccccc1)C(=O)N[C@@H](Cc1ccccc1)C(N)=O)C(C)C)C(C)C` [Compound 121, [Aib8,Glu23,Val25,Glu34,Lys35,Val36,Lys37]-GLP-1-(7-37)-peptidyl-Glu-Phe-Phe amide] (H-H[Aib]EGTFTSDVSSYLEGEAVKEFIAWLVEKVKEFF-NH2), the “4 h Cholesterol Efflux Emax” value in experiment [1] turned out to be 109%. This compound yielded an EC50 in experiment [2] (setting [3]) of 0.372 nM.

In the case of `CC[C@H](C)[C@H](NC(=O)[C@H](Cc1ccccc1)NC(=O)[C@H](CCC(=O)O)NC(=O)[C@H](CCCCN)NC(=O)[C@@H](NC(=O)[C@H](C)NC(=O)[C@H](CCC(N)=O)NC(=O)CNC(=O)[C@H](CCC(=O)O)NC(=O)[C@H](CC(C)C)NC(=O)[C@H](Cc1ccc(O)cc1)NC(=O)[C@H](CO)NC(=O)[C@H](CO)NC(=O)[C@@H](NC(=O)[C@H](CC(=O)O)NC(=O)[C@H](CO)NC(=O)[C@@H](NC(=O)[C@H](Cc1ccccc1)NC(=O)[C@@H](NC(=O)CNC(=O)[C@H](CCC(=O)O)NC(=O)C(C)(C)NC(=O)[C@@H](N)Cc1c[nH]cn1)[C@@H](C)O)[C@@H](C)O)C(C)C)C(C)C)C(=O)N[C@@H](C)C(=O)N[C@@H](Cc1c[nH]c2ccccc12)C(=O)N[C@@H](CC(C)C)C(=O)N[C@H](C(=O)N[C@@H](CC(N)=O)C(=O)N[C@@H](CCCCN)C(=O)NC(C)(C)C(=O)N[C@@H](C)C(=O)N[C@@H](CCC(=O)O)C(=O)N[C@@H](Cc1ccccc1)C(=O)N[C@@H](CC(C)C)C(N)=O)C(C)C` [Compound 73] (H-H[Aib]EGTFTSDVSSYLEGQAVKEFIAWLVNK[Aib]AEFL-NH2), in experiment [1], the “4 h Cholesterol Efflux Emax” value worked out at 86%. For the same compound, the EC50 was 0.108 nM in experiment [2] (setting [4]) and 0.062 nM in experiment [2] (setting [3]).

Turning to `CC[C@H](C)[C@H](NC(=O)[C@H](Cc1ccccc1)NC(=O)[C@H](CCC(=O)O)NC(=O)[C@H](CCCCN)NC(=O)[C@@H](NC(=O)[C@H](C)NC(=O)[C@H](CCC(=O)O)NC(=O)CNC(=O)[C@H](CCC(=O)O)NC(=O)[C@H](CC(C)C)NC(=O)[C@H](Cc1ccc(O)cc1)NC(=O)[C@H](CO)NC(=O)[C@H](CO)NC(=O)[C@@H](NC(=O)[C@H](CC(=O)O)NC(=O)[C@H](CO)NC(=O)[C@@H](NC(=O)[C@H](Cc1ccccc1)NC(=O)[C@@H](NC(=O)CNC(=O)[C@H](CCC(=O)O)NC(=O)C(C)(C)NC(=O)[C@@H](N)Cc1c[nH]cn1)[C@@H](C)O)[C@@H](C)O)C(C)C)C(C)C)C(=O)N[C@@H](C)C(=O)N[C@@H](Cc1c[nH]c2ccccc12)C(=O)N[C@@H](CC(C)C)C(=O)N[C@H](C(=O)N[C@@H](CCC(=O)O)C(=O)N[C@@H](CCCCN)C(=O)NCC(=O)N[C@@H](CCCCN)C(=O)N[C@@H](CCC(=O)O)C(=O)N[C@@H](Cc1ccccc1)C(=O)N[C@@H](CC(C)C)C(N)=O)C(C)C` [Compound 113, [Aib8,Glu23,Val25,Glu34,Lys35,Gly36,Lys37]-GLP-1-(7-37)-peptidyl-Glu-Phe-Leu amide] (H-H[Aib]EGTFTSDVSSYLEGEAVKEFIAWLVEKGKEFL-NH2), the “4 h Cholesterol Efflux Emax” value in experiment [1] is given as 143%. In addition, the EC50 in experiment [2] (setting [4]) was 0.034 nM.

`CC[C@H](C)[C@H](NC(=O)[C@H](Cc1ccccc1)NC(=O)[C@H](CCC(=O)O)NC(=O)[C@H](CCCCN)NC(=O)[C@@H](NC(=O)[C@H](C)NC(=O)[C@H](CCC(=O)O)NC(=O)[C@H](CCC(=O)O)NC(=O)[C@H](CCC(=O)O)NC(=O)[C@H](CC(C)C)NC(=O)[C@H](Cc1ccc(O)cc1)NC(=O)[C@H](CO)NC(=O)[C@H](CO)NC(=O)[C@@H](NC(=O)[C@H](CC(=O)O)NC(=O)[C@H](CO)NC(=O)[C@@H](NC(=O)[C@H](Cc1ccccc1)NC(=O)[C@@H](NC(=O)CNC(=O)[C@H](CCC(=O)O)NC(=O)C(C)(C)NC(=O)[C@@H](N)Cc1c[nH]cn1)[C@@H](C)O)[C@@H](C)O)C(C)C)C(C)C)C(=O)N[C@@H](C)C(=O)N[C@@H](Cc1c[nH]c2ccccc12)C(=O)N[C@@H](CC(C)C)C(=O)N[C@H](C(=O)N[C@@H](CCC(=O)O)C(=O)N[C@@H](CCCCN)C(=O)N[C@H](C(=O)N[C@@H](CCCCN)C(=O)N[C@@H](CCC(=O)O)C(=O)N[C@@H](Cc1ccccc1)C(=O)N[C@@H](CC(C)C)C(N)=O)C(C)C)C(C)C` [Compound 137, [Aib8,Glu22,Glu23,Val25,Glu34,Lys35,Val36,Lys37]-GLP-1-(7-37)-peptidyl-Glu-Phe-Leu amide] (H-H[Aib]EGTFTSDVSSYLEEEAVKEFIAWLVEKVKEFL-NH2): in experiment [1], the “4 h Cholesterol Efflux Emax” value is 108%. Further, the values for the EC50 in experiment [2] (setting [4]) and in experiment [2] (setting [3]) were 0.116 nM and 0.034 nM, respectively.
